# pEC50: −log10 of the molar value.
# Tested on: MOLM-13 cells
# Assay: Caspase cleavage assay (Caspase3, 7 activation)
# Assay type: cell-based
# Conditions: Homo sapiens, 16 h treatment, caspase substrate Z-DEVD-R110, read-out: c* Concentration at which 50% of the maximum signal was achieved (caspase activation)
# Method in brief: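 Cells (30,000/well, RPMI) treated 16 h with compound or DMSO in triplicate, then given buffer with 10 mM HEPES pH 7.5, 2 mM EDTA, 0.1% CHAPS and 25 μM Z-DEVD-R110. Fluorescence read once signal stabilized; results given as percentage increase in apoptotic cells versus DMSO-treated control.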
row,Compound,pEC50
1,"COc1cccc(COc2nc(N3CCN([C@H](C)C4CC4)CC3)ncc2Sc2ccc(C(N)=O)cc2)c1 [compound 317, (R)-4-((2-(4-(1-Cyclopropylethyl)piperazin-1-yl)-4-((3-methoxybenzyl)oxy)pyrimidin-5-yl)thio)benzamide]",≤ 5.92
2,"COc1cccc(COc2nc(N3CCNC(=O)C3)ncc2Sc2ccc(C(N)=O)cc2)c1 [compound 319, 4-((4-((3-Methoxybenzyl)oxy)-2-(3-oxopiperazin-1-yl)pyrimidin-5-yl)thio)benzamide]",≤ 5.92
3,"COc1cccc(COc2nc(N3CCN(CC4CC4)C(=O)C3)ncc2Sc2ccc(C(N)=O)cc2)c1 [compound 321, 4-((2-(4-(Cyclopropylmethyl)-3-oxopiperazin-1-yl)-4-((3-methoxybenzyl)oxy)pyrimidin-5-yl)thio)benzamide]",> 6.70
4,"COc1cccc(COc2nc(N3CCN(Cc4ncco4)CC3)ncc2Sc2ccc(C(N)=O)cc2)c1 [compound 323, 4-((4-((3-Methoxybenzyl)oxy)-2-(4-(oxazol-2-ylmethyl)piperazin-1-yl)pyrimidin-5-yl)thio)benzamide]",> 6.70
5,"COc1cccc(COc2nc(N3CCN(CC#CCO)CC3)ncc2Sc2ccc(C(N)=O)cc2)c1 [compound 326, 4-((2-(4-(4-Hydroxybut-2-yn-1-yl)piperazin-1-yl)-4-((3-methoxybenzyl)oxy)pyrimidin-5-yl)thio)benzamide]",> 6.70
6,"Cc1cccc(COc2nc(N3CCN(C)CC3)ncc2Sc2ccc(C(N)=O)c(C(F)(F)F)c2)c1 [compound 329, 4-((4-((3-Methylbenzyl)oxy)-2-(4-methylpiperazin-1-yl)pyrimidin-5-yl)thio)-2-(trifluoromethyl)benzamide]",6.00 to 6.40
7,"CC(C)c1cccc(COc2nc(N3CCN(C)CC3)ncc2Sc2ccc(C(N)=O)c(C(F)(F)F)c2)c1 [compound 331, 4-((4-((3-Isopropylbenzyl)oxy)-2-(4-methylpiperazin-1-yl)pyrimidin-5-yl)thio)-2-(trifluoromethyl)benzamide]",≤ 5.92
8,"CCc1cccc(COc2nc(N3CCN(C)CC3)ncc2Sc2ccc(C(N)=O)c(C(F)(F)F)c2)c1 [compound 333, 4-((4-((3-Ethylbenzyl)oxy)-2-(4-methylpiperazin-1-yl)pyrimidin-5-yl)thio)-2-(trifluoromethyl)benzamide]",5.92 to 6.00
9,"C#CCN1CCN(c2ncc(Sc3ccc(C(N)=O)cc3)c(OCc3cccc(N(C)C)c3)n2)CC1 [compound 336, 4-((4-((3-(Dimethylamino)benzyl)oxy)-2-(4-(prop-2-yn-1-yl)piperazin-1-yl)pyrimidin-5-yl)thio)benzamide]",> 6.70
10,"C#CCN1CCN(c2ncc(Sc3ccc(C(N)=O)c(C(F)(F)F)c3)c(OCc3cccc(N(C)C)c3)n2)CC1 [compound 339, 4-((4-((3-(Dimethylamino)benzyl)oxy)-2-(4-(prop-2-yn-1-yl)piperazin-1-yl)pyrimidin-5-yl)thio)-2-(trifluoromethyl)benzamide]",6.00 to 6.40
11,"CN(C)c1cccc(COc2nc(N3CCN(C4CC4)CC3)ncc2Sc2ccc(C(N)=O)c(C(F)(F)F)c2)c1 [compound 341, 4-((2-(4-Cyclopropylpiperazin-1-yl)-4-((3-(dimethylamino)benzyl)oxy)pyrimidin-5-yl)thio)-2-(trifluoromethyl)benzamide]",≤ 5.92
12,"CN(C)c1cccc(COc2nc(N3CCN(CC4CC4)CC3)ncc2Sc2ccc(C(N)=O)c(C(F)(F)F)c2)c1 [compound 343, 4-((2-(4-(Cyclopropylmethyl)piperazin-1-yl)-4-((3-(dimethylamino)benzyl)oxy)pyrimidin-5-yl)thio)-2-(trifluoromethyl)benzamide]",≤ 5.92
13,"CN1CCN(c2ncc(Sc3ccc(C(N)=O)c(C(F)(F)F)c3)c(OCc3cccc(N(C)C)c3)n2)CC1=O [compound 345, 4-((4-((3-(Dimethylamino)benzyl)oxy)-2-(4-methyl-3-oxopiperazin-1-yl)pyrimidin-5-yl)thio)-2-(trifluoromethyl)benzamide]",5.92 to 6.00
